The values that follow come from patent US20220193111A1, “Method of Treatment” (The University Court of the University of Edinburgh, priority 2018, published 2022).

One data set deals with skin wounds. Briefly: Mouse model of skin wound healing (full-thickness excisional wounds). In kind it is in vivo. To be noted: for vessel density (CD31 positive vessels) / wound perfusion (laser Doppler): topical 1 μg/wound; for wound closure / expression of targets TGFB2 and SMAD2 in wound: topical 1 μg/wound every second day; for wound closure: 7 days; for wound perfusion (laser Doppler): 5 days post wounds. How it is done: All experiments involving mice were performed in accordance with the guidance and the operation of Animals (Scientific Procedures) Act 1986 and prior approval of the UK Home Office and the University of Edinburgh ethic committee. Skin wound healing protocol has been performed as described before^54-56. CD-1 female mice (7-9-week-old) (n=8 per group) were randomly assigned a treatment group and anaesthetized with isofluorane. Two full-thickness excisional wounds were made to the shaved dorsal skin. Full-thickness excisional wounds were made by picking up a fold of skin and using a sterile, disposable 5-mm biopsy punch (Kai Industries), resulting in generation of one wound on each side of the midline. Control oligonucleotides (scramble sequence), miR-148b mimic, Cy3-labeled miR-148b mimic or anti-miR-148b or SMAD2 siRNA (1 μg/wound) were delivered topically by pipette into the wound cavity (10 μl in a vehicle of 30% Pluronic F-127 gel [is liquid at 4° C. but solidifies at body temperature]; Sigma Aldrich). Mimics were initially delivered after 3 days, whereas anti-miR and siRNA were delivered immediately after wounding. The treatment was performed every second day for 7 days. Wounds were photographed using an Olympus camera on days 0, 2, 4, 6, and 7 after wounding. Wound areas were calculated as previously described^54, 55. To this aim, two perpendicular diameters of the wound were measured by using a Vernier caliper and wound area was calculated using a standard formula for the area of an ellipse (semi-major diameter X semi-minor diameter X Pi). The superficial blood flow of the wounds was sequentially analysed by colour laser Doppler (Colour laser Doppler, Moor, UK), and the ratio of blood flow between the mimic or anti-miR or siRNA treated and the control treated wounds was calculated. Wound size and Doppler analysis was performed in blinded fashion.
Wounds were harvested, prepared, and analysed essentially as previously described^54-56. At days 5 or 7 post-wounding, wounds were harvested and fixed in 10% buffered formalin (16 h at 4° C., Sigma) for embedding in paraffin. Sectioning was done through the wound beyond the midpoint and wound centres as identified by staining with Haematoxylin and Eosin (Sigma). Sections were deparaffinised, rehydrated and stained with rat anti-mouse polyclonal CD31 (Abcam, ab28364, 1:50), α-SMA (Sigma, A2547, 1:100) rabbit anti-mouse FSP-1 (Abcam, ab41532, 1:50), and SLUG (Abcam, […], 1:200); all antibodies overnight at 4° C.
Zeiss LSM 780 Confocal Microscope (Zeiss). Vascular density in wounds was counted after staining for CD31 and α-SMA. Ten fields per section/animal (n=8 animal; 400× magnification) were randomly examined and averaged to analyse the number of CD31-positive blood vessels in the wound edges. Images collection was performed manually. Image analysis was performed using Image J software as previously reported in^54. Vascular density is expressed per square millimetre. EndMT of ECs was assessed by FSP-1 and SLUG staining combined with CD31 staining. CD31-FSP-1 and CD31-SLUG double positive vessels are expressed as percentage of positive vessels. For analysis of fibrosis: the slides of the staining were examined and photomicrographed in a blinded fashion using a light microscope (Axioscope 2; Zeiss). Six images per slide were captured at 400× magnification for both histological staining. The colour deconvolution ImageJ software was used to evaluate the percentage of red staining which indicate the presence of collagen fibres in the tissue. The morphometric analysis corresponding to the red colours was measured as the percentage of total pixels in each image, using the Threshold (Image J software).

A further data set has as its system HUVECs. Kind of data set: ECIS migration assay. In kind it is cell-based, human. To be noted: transfected 48 hrs (mimic 25 nM, anti-miR 75 mM). How it is done:
Confluent HUVECs were transfected with controls or miR-148b mimic or anti-miR-148b and, plated on the ECIS chip array (8W1E or 8W10E). The migration speed was calculated in μm/h, capacitance of the plasma membrane is Cm (μF/cm^2) as reported in Giaever, I, and Keese, C R (1991)^29.

“anti-miR-148b: miR-148b inhibitor oligonucleotide; suitable inhibitor: hsa-miR-148b-3p miRCURY LNA inhibitor, CAAAGTTCTGTGATGCACTG (SEQ ID NO: 6) (commercial miRCURY LNA inhibitor, LNA positions not given here)”: in the data set with skin wounds (day 7 after wounding), the “collagen deposition (PicroSirius Red)” value is reported as “did not detect any increase”; the “expression of targets TGFB2 and SMAD2 in wound” value is recorded as “increased”. In addition, in the data set on skin wounds (delivered immediately after wounding and every two days, day 7), the “CD31-FSP-1 or CD31-SLUG double-positive vessels in wound edge” value is recorded as “comprised of CD31-FSP-1 or CD31-SLUG double-positive vessels”. The “skin vessels that demonstrated mesenchymal transition (EndMT)” value with skin wounds (following delivery to the wounds) is “around 20%”. In the data set on skin wounds, the “vessel density (CD31 positive vessels)” value was “without effecting”, the wound closure entry is on record as “markedly attenuated” and the “wound perfusion (laser Doppler)” value is “without effecting”. In addition, the “total number of FSP-1 positive cells in wounds” value with skin wounds (vs control oligonucleotide-treated wounds, day 7) is recorded as “increase”. The “EC migration (migration speed)” value in the data set with HUVECs was “did not cause a change”.

B1: miR-148b mimic: miR-148b mimic oligonucleotide; in a particular embodiment has SEQ ID NO: 1, the human precursor miR-148b sequence (nucleic acid)
chain: CAAGCACGAUUAGCAUUUGAGGUGAAGUUCUGUUAUACACUCAGGCUGUGGCUCUCUGAAAGUCAGUGCAUCACAGAACUUUGUCUCGAAAGCUUUCUA
modifications: listed as RNA, chemistry not given here
In the case of B1, in the data set on skin wounds, the “vessel density (CD31 positive vessels)” value is “significant increase”, the wound closure entry is on record as “accelerated” and the “wound perfusion (laser Doppler)” value is recorded as “significant increase”. Besides, the “expression of targets TGFB2 and SMAD2 in wound” value in the data set with skin wounds (day 7 after wounding) is on record as “decreasing”. The “miR-148b expression in wound” value with skin wounds (topical, starting 3 days after wounding, day 7) was “increased”. Also, in the data set with HUVECs, the “EC migration (migration speed)” value was “significantly elevated”.
